The source of these data is patent publication US20220411388A1, “SUBSTITUTED IMIDAZOLE CARBOXAMIDES AND THEIR USE IN THE TREATMENT OF MEDICAL DISORDERS” (Bial - R&D Investments, S.A., priority 2019, published 2022).

The structures appear in SMILES notation. Values after ≈ are worked out from the molar mass of the structure shown.

For orientation: solubility means the dissolved amount per volume that the medium holds. Read a high solubility as a readily soluble substance. Broadly, the IC50 is the concentration needed to halve the response being measured.

A short description of series [1]: Compound solubility in water. It is filed as physicochemical.
The target of series [2] is T1, acid ceramidase (hACR) (Homo sapiens, UniProt Q13510).
T1 construct: expressed in transfected cells
T1 sequence (Q13510 22-395): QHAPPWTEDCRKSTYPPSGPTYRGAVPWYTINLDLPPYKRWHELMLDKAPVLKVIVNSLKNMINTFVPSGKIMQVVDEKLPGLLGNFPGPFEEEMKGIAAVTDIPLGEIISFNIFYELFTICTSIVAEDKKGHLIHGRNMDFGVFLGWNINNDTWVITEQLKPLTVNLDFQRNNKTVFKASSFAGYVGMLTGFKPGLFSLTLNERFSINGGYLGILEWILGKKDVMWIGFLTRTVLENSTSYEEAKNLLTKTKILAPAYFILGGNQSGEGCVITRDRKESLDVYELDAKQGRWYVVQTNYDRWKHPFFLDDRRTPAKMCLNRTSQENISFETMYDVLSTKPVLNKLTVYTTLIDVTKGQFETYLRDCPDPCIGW
The experiment in a line: Acid ceramidase inhibition, biochemical fluorescent assay with cell lysates overexpressing acid ceramidase (substrate Rbm14-12). The following applies: cell lysate, 1 hr preincubation at RT, pH 4.5, Rbm14-12 6.3 μM; read-out: IC50 hACR. As for the experimental part:
The ability of exemplary compounds to inhibit acid ceramidase was measured.
Cell lysates overexpressing acid ceramidase were used as the enzyme source for compound potency determination in a biochemical fluorescent assay. Briefly, compounds were preincubated with 10 μg protein of cell lysates in a dose-response manner for 1 hr at RT in the assay buffer containing 25 mM NaAC and 100 mM NaCl, pH 4.5. […] The samples were incubated with the stopping buffer at RT for 1 hr to allow the fluorescent product to be formed. […] Data were collected and used to determine the IC50 values of compounds by curve fitting to the four-parameter inhibition equation.

In series [1], `CC(C)CCCCNC(=O)n1cnc(-c2cccnc2)c1` [Example 39, N-(5-Methylhexyl)-4-(pyridin-3-yl)-1H-imidazole-1-carboxamide] returned a solubility of 2.7 µg/mL (≈ 9.43 µM). For the same compound, the concentration for half-maximal inhibition (IC50) in series [2] is under 0.2 µM.

In series [1], `CC(C)CCNC(=O)n1cnc(-c2ccncc2)c1` [Example 41, N-iso-Pentyl-4-(pyridin-4-yl)-1H-imidazole-1-carboxamide] displayed a solubility of 22.1 µg/mL (≈ 85.6 µM). The IC50 in series [2] is over 1 µM.

With `O=C(NCc1ccccc1)n1cnc(-c2cccnc2)c1` [Example 42], in series [1], the concentration in solution (solubility) came to 13.6 µg/mL (≈ 48.9 µM). For the same compound, the IC50 in series [2] was in the range of 0.2 to 1 µM.

Take `CC(C)c1ccc(-c2cn(C(=O)NCCc3ccccc3)cn2)cn1` [Example 43, 4-(6-iso-Propylpyridin-3-yl)-N-phenethyl-1H-imidazole-1-carboxamide]: the solubility in series [1] came out at 0.8 µg/mL (≈ 2.39 µM). For the same compound, in series [2], the concentration for half-maximal inhibition (IC50) is under 0.2 µM.

In series [1], `CN(C)Cc1cncc(-c2cn(C(=O)NCCc3ccccc3)cn2)c1` [Example 44, 4-(5-((Dimethylamino)methyl)pyridin-3-yl)-N-phenethyl-1H-imidazole-1-carboxamide] registered a solubility of 30.8 µg/mL (≈ 88.1 µM). The IC50 in series [2] was in the range of 0.2 to 1 µM.

`CC(C)(C)CCNC(=O)n1cnc(-c2cccnc2)c1` [Example 45, N-(3,3-Dimethylbutyl)-4-(pyridin-3-yl)-1H-imidazole-1-carboxamide]: in series [1], the concentration in solution (solubility) came to 12.1 µg/mL (≈ 44.4 µM). For the same compound, the IC50 in series [2] was in the range of 0.2 to 1 µM.

Take `CC(C)CCNC(=O)n1cnc(-c2ccccn2)c1` [Example 46, N-iso-Pentyl-4-(pyridin-2-yl)-1H-imidazole-1-carboxamide]: the concentration in solution in series [1] (solubility) came to 13.8 µg/mL (≈ 53.4 µM). Besides, the IC50 in series [2] lay within 0.2 to 1 µM.

`CC(C)CCNC(=O)n1cnc(C2CCCN(C)C2)c1` (stereo not drawn) [Example 47, N-iso-Pentyl-4-(1-methylpiperidin-3-yl)-1H-imidazole-1-carboxamide] gave a solubility in series [1] of 32.2 µg/mL (≈ 116 µM). Besides, the IC50 in series [2] lay within 0.2 to 1 µM.

With `CC(C)CCNC(=O)n1cnc(C2CCN(C)CC2)c1` [Example 48, N-iso-Pentyl-4-(1-methylpiperidin-4-yl)-1H-imidazole-1-carboxamide], in series [1], the solubility came out at 34.2 µg/mL (≈ 123 µM). Also, the IC50 in series [2] is 0.2 to 1 µM.

The compound `Cc1nc(-c2cccnc2)cn1C(=O)NCCC(C)C` [Example 49, N-iso-Pentyl-2-methyl-4-(pyridin-3-yl)-1H-imidazole-1-carboxamide] displayed a solubility in series [1] of 7.9 µg/mL (≈ 29 µM). Moreover, the IC50 in series [2] was under 0.2 µM.

Consider `CC(C)CCNC(=O)n1cnc(-c2nccs2)c1` [Example 50, N-iso-Pentyl-4-(thiazol-2-yl)-1H-imidazole-1-carboxamide], for which, in series [1], the solubility is 23.5 µg/mL (≈ 88.9 µM). Also, in series [2], the IC50 is 0.2 to 1 µM.

As to `CC(C)CCNC(=O)n1cnc(-c2cncs2)c1` [Example 51, N-iso-Pentyl-4-(thiazol-5-yl)-1H-imidazole-1-carboxamide], the solubility in series [1] was 25.1 µg/mL (≈ 94.9 µM). In series [2], the IC50 lay within 0.2 to 1 µM.

`COc1nc(-c2cccnc2)cn1C(=O)NCCC1CC1` [Example 53, N-(2-Cyclopropylethyl)-2-methoxy-4-(pyridin-3-yl)-1H-imidazole-1-carboxamide]: the solubility in series [1] came out at 26.5 µg/mL (≈ 92.5 µM). Besides, in series [2], the IC50 is over 1 µM.

With `O=C(NCCC1CC1)n1cnc(-c2cccnc2N2CCC(N3CCOCC3)CC2)c1` [Example 54, N-(2-Cyclopropylethyl)-4-(2-(4-morpholinopiperidin-1-yl)pyridin-3-yl)-1H-imidazole-1-carboxamide], the solubility in series [1] is 32.8 µg/mL (≈ 77.3 µM). Further, in series [2], the IC50 is under 0.2 µM.

In series [1], `CN1CCN(C2CCN(c3ncccc3-c3cn(C(=O)NCCC4CC4)cn3)CC2)CC1` [Example 55, N-(2-Cyclopropylethyl)-4-(2-(4-(4-methylpiperazin-1-yl)piperidin-1-yl)pyridin-3-yl)-1H-imidazole-1-carboxamide] came in with a solubility of 41.5 µg/mL (≈ 94.8 µM). The IC50 in series [2] lay within 0.2 to 1 µM.

On to `CC(C)CCNC(=O)n1cnc(CC2CCN(C)CC2)c1` [Example 56, N-iso-Pentyl-4-((1-methylpiperidin-4-yl)methyl)-1H-imidazole-1-carboxamide], for which, in series [1], the concentration in solution (solubility) came to 21.7 µg/mL (≈ 74.2 µM). For the same compound, in series [2], the IC50 lay in the range of 0.2 to 1 µM.

The compound `COc1nc(C(C)(C)C)cn1C(=O)NCCC(C)C` [Example 57, 4-(tert-Butyl)-N-isopentyl-2-methoxy-1H-imidazole-1-carboxamide] gave a solubility in series [1] of 13.3 µg/mL (≈ 49.7 µM). For the same compound, the IC50 in series [2] lay within 0.2 to 1 µM.

`COc1nc(C(C)(C)C)cn1C(=O)NC(C)CC(C)C` (stereo not drawn) [Example 58, 4-(tert-Butyl)-2-methoxy-N-(4-methylpentan-2-yl)-1H-imidazole-1-carboxamide] came in with a solubility in series [1] of 15.1 µg/mL (≈ 53.7 µM). Further, the IC50 in series [2] was 0.2 to 1 µM.

In turn, `CC(C)CC(C)NC(=O)n1cnc(-c2cccnc2)c1` (stereo not drawn) [Example 59, N-(4-Methylpentan-2-yl)-4-(pyridin-3-yl)-1H-imidazole-1-carboxamide] showed a solubility in series [1] of 22.3 µg/mL (≈ 81.9 µM). Besides, the IC50 in series [2] was in the range of 0.2 to 1 µM.

In series [1], `CCC(C)CNC(=O)n1cnc(-c2cccnc2)c1` (stereo not drawn) [Example 60, N-(2-Methylbutyl)-4-(pyridin-3-yl)-1H-imidazole-1-carboxamide] yielded a solubility of 25.6 µg/mL (≈ 99.1 µM). In addition, the IC50 in series [2] lay within 0.2 to 1 µM.

Regarding `O=C(NC1CCCCC1)n1cnc(-c2cccnc2)c1` [Example 61, N-Cyclohexyl-4-(pyridin-3-yl)-1H-imidazole-1-carboxamide], the solubility in series [1] was 23 µg/mL (≈ 85.1 µM). Moreover, in series [2], the IC50 is over 1 µM.

The compound `COc1ccc(-c2cn(C(=O)NC3CCCCC3)cn2)cn1` [Example 62, N-Cyclohexyl-4-(6-methoxypyridin-3-yl)-1H-imidazole-1-carboxamide] displayed a solubility in series [1] of 0.6 µg/mL (≈ 2 µM). Moreover, the IC50 in series [2] was over 1 µM.

In series [1], `CCOc1nc(-c2ccccn2)cn1C(=O)NCCC1CC1` [Example 63, N-(2-Cyclopropylethyl)-2-ethoxy-4-(pyridin-2-yl)-1H-imidazole-1-carboxamide] registered a solubility of 24.1 µg/mL (≈ 80.2 µM). Moreover, the IC50 in series [2] was over 1 µM.

`CCOc1nc(-c2cccnc2)cn1C(=O)NCCC1CC1` [Example 64, N-(2-Cyclopropylethyl)-2-ethoxy-4-(pyridin-3-yl)-1H-imidazole-1-carboxamide]: the concentration in solution in series [1] (solubility) came to 16.8 µg/mL (≈ 55.9 µM). For the same compound, in series [2], the IC50 is over 1 µM.

With `CC(C)Oc1nc(-c2cccnc2)cn1C(=O)NCCC1CC1` [Example 65, N-(2-Cyclopropylethyl)-2-isopropoxy-4-(pyridin-3-yl)-1H-imidazole-1-carboxamide], the concentration in solution in series [1] (solubility) was 25 µg/mL (≈ 79.5 µM). Also, the IC50 in series [2] lay within 0.2 to 1 µM.

Compound `O=C(NCCC1CC1)n1cc(-c2cccnc2)nc1OC1CC1` [Example 66, 2-Cyclopropoxy-N-(2-cyclopropylethyl)-4-(pyridin-3-yl)-1H-imidazole-1-carboxamide] returned a solubility in series [1] of 25 µg/mL (≈ 80 µM). Moreover, the IC50 in series [2] was over 1 µM.

For the compound `CCOc1nc(-c2cccnc2)cn1C(=O)NCCC(C)C` [Example 67, 2-Ethoxy-N-iso-pentyl-4-(pyridin-3-yl)-1H-imidazole-1-carboxamide], in series [1], the solubility was determined as 8 µg/mL (≈ 26.5 µM). Moreover, in series [2], the IC50 was over 1 µM.

As to `CSc1nc(-c2cccnc2)cn1C(=O)NCCC1CC1` [Example 67a], the solubility in series [1] stood at 23 µg/mL (≈ 76.1 µM). In series [2], the IC50 lay in the range of 0.2 to 1 µM.

In series [1], `CCOc1nc(-c2ccc(OC)nc2)cn1C(=O)NCCC1CC1` [Example 68, N-(2-Cyclopropylethyl)-2-ethoxy-4-(6-methoxypyridin-3-yl)-1H-imidazole-1-carboxamide] displayed a solubility of 2 µg/mL (≈ 6.05 µM). In addition, the IC50 in series [2] was over 1 µM.

As to `O=C(NCCC1CC1)n1cnc(-c2cscn2)c1` [Example 69, N-(2-Cyclopropylethyl)-4-(thiazol-4-yl)-1H-imidazole-1-carboxamide], in series [1], the concentration in solution (solubility) came to 32 µg/mL (≈ 122 µM). Besides, in series [2], the IC50 fell in the range of 0.2 to 1 µM.

As for `COc1ccc(-c2cn(C(=O)NCCC3CC3)cn2)cn1` [Example 70, N-(2-Cyclopropylethyl)-4-(6-methoxypyridin-3-yl)-1H-imidazole-1-carboxamide], in series [1], the solubility amounted to 1.3 µg/mL (≈ 4.54 µM). Moreover, the IC50 in series [2] lay within 0.2 to 1 µM.

The compound `COc1ccc(-c2cn(C(=O)NCCC3(C(F)(F)F)CC3)cn2)cn1` [Example 71, 4-(6-Methoxypyridin-3-yl)-N-(2-(1-(trifluoromethyl)cyclopropyl)ethyl)-1H-imidazole-1-carboxamide] gave a solubility in series [1] of 22 µg/mL (≈ 62.1 µM). The IC50 in series [2] is under 0.2 µM.

Turning to `O=C(NCCC1CC1)n1cnc(-c2ccns2)c1` [Example 72, N-(2-Cyclopropylethyl)-4-(iso-thiazol-5-yl)-1H-imidazole-1-carboxamide], in series [1], the solubility was determined as 22 µg/mL (≈ 83.9 µM). In addition, in series [2], the half-maximal inhibitory concentration (IC50) fell in the range of 0.2 to 1 µM.

The compound `Cc1nc(-c2cn(C(=O)NCCC3CC3)cn2)co1` [Example 73, N-(2-Cyclopropylethyl)-4-(2-methyloxazol-4-yl)-1H-imidazole-1-carboxamide] gave a solubility in series [1] of 26 µg/mL (≈ 99.9 µM). The IC50 in series [2] was 0.2 to 1 µM.

`O=C(NCCC1CC1)n1cnc(-n2ccc(F)n2)c1` [Example 74, N-(2-Cyclopropylethyl)-4-(3-fluoro-1H-pyrazol-1-yl)-1H-imidazole-1-carboxamide] returned a solubility in series [1] of 34 µg/mL (≈ 129 µM). Besides, the IC50 in series [2] is over 1 µM.

Compound `COc1nc(C2CCCC2)cn1C(=O)NCCC(C)C` [Example 75, 4-Cyclopentyl-N-iso-pentyl-2-methoxy-1H-imidazole-1-carboxamide] showed a solubility in series [1] of 13 µg/mL (≈ 46.5 µM). Moreover, the IC50 in series [2] was in the range of 0.2 to 1 µM.
